Reference: BindingDB's records for doi:10.1021/jm00045a011 (Eisai, 1994)

Target: Arachidonate 5-lipoxygenase (Homo sapiens)
Test: Tested for inhibitory activity against leukotriene B4 (LTB4) production in human neutrophils

IC50: 30 nM
SMILES: Cc1c(O)c(C)c2sc(NCc3ccc(S(N)(=O)=O)cc3)nc2c1C [4-[(6-Hydroxy-4,5,7-trimethyl-benzothiazol-2-ylamino)-methyl]-benzenesulfonamide]
